We go through four compounds from patent US20060089347A1, “Substituted azepines as histamine h3 receptor antagonists, preparation and therapeutic uses” (Eli Lilly and Company, priority 2002, published 2006).

The nature of data set [1]: rat pharmacokinetics iv/po. It counts as in vivo, Male Sprague Dawley Rats. As to conditions: male, Sprague Dawley, blood; for bioavailability: 3 mg/kg iv or 10 mg/kg po, AUC 0-8 hr po/iv ratio, vehicle water; for half-life: 10 mg/kg po. The procedure:
Non-imidazole containing histamine H3 receptor antagonists disclosed in the literature generally have very poor pharmacokinetic properties (see J. Apelt, et al, J. Med. Chem. 2002, 45, 1128-1141). […] Male Sprague Dawley Rats (n=3 per dose arm) were separately dosed with 3 mg/kg iv or 10 mg/kg po of compound examples 8 and 19 (vehicle: water; dose volume: 1 mL/kg iv, 10 ml/kg po). Approximately 0.5 mL of blood was collected in heparin collection tubes at multiple time points over an 8 or 24 hour period for examples 8 and 19 respectively, and the samples were analyzed using LC/MS/MS.

The target of another data set is T1, H4R (Homo sapiens, UniProt Q9H3N8).
T1 construct: expressed in transfected cells; host or cells: HEK293 (HEK293 GPRv53 50 cells)
T1 sequence (Q9H3N8 whole entry): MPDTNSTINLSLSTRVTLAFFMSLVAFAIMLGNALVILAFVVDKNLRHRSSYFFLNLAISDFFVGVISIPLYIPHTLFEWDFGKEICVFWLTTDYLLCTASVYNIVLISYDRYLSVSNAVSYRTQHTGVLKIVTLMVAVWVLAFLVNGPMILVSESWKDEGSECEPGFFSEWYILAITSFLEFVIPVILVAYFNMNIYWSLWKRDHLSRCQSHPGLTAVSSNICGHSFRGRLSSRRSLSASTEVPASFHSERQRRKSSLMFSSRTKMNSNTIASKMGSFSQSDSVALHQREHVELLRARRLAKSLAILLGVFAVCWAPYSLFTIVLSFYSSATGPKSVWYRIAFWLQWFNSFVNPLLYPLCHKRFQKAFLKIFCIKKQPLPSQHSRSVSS
As to the kind of experiment: competitive binding assay, GPRv53 (H4R). The following applies: for Ki: competitive binding, selectivity panel; for inhibition of binding to H4R: in contrast to H3R. As for the experimental part: cDNA for the human GPRv53 receptor was cloned and expressed as described in (Preparation of Histamine Receptor Subtype Membranes: A), above. Transfected cells were selected, tested for histamine binding, and selected. HEK293 GPRv53 50 cells were grown to confluency in DMEM/F12 (Gibco) supplemented with 5% FBS and 500 ug/ml G418 and washed with Delbecco's PBS (Gibco) and harvested by scraping. Whole cells were homogenized with a Polytron tissuemizer in binding buffer, 50 mM Tris pH 7.5. Cell lysates, 50 ug, were incubated in 96 well dishes with 3 nM (3H) Histamine and compounds in binding buffer for 2 hours at room temperature. Lysates were filtered through glass fiber filters (Perlin Elmer) with a Tomtec cell harverster. Filters were counted with melt-on scintillator sheets (Perlin Elmer) in a Wallac Trilux 1450 Microbeta Scintillation counter for 5 minutes.
(§1) To investigate the selectivity of the antagonists for the histamine receptors, a competitive binding assay described above was performed. […] Until the present invention, most known H3R antagonists also bound H4R.

The target of a further data set is T2, H1R (Homo sapiens, UniProt P35367).
T2 construct: expressed in transfected cells; host or cells: HEK293 (clone HIR40), vector pcDNA3.1(+)
T2 sequence (P35367 whole entry): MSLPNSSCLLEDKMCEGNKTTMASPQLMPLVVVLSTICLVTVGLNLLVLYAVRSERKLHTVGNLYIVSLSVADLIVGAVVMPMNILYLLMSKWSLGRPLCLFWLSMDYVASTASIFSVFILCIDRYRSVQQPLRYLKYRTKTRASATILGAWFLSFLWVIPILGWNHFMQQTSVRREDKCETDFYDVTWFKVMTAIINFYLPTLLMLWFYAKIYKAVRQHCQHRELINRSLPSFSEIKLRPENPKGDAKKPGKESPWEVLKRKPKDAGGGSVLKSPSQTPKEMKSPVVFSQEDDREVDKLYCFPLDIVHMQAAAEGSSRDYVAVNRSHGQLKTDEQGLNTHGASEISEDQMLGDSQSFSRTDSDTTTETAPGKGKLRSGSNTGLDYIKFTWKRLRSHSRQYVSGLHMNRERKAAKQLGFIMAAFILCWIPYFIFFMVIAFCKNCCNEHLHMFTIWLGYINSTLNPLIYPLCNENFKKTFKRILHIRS
As to the kind of experiment: competitive SPA binding assay, H1R. As to conditions: selectivity panel. The procedure: cDNA for the human histamine 1 receptor (H1R) was cloned into a mammalian expression vector containing the CMV promoter (pcDNA3.1(+), Invitogen) and transfected into HEK293 cells using the FuGENE Tranfection Reagent (Roche Diagnostics Corporation). Transfected cells were selected using G418 (500 μ/ml). Colonies that survived selection were grown and tested for histamine binding to cells grown in 96-well dishes using a scintillation proximity assay (SPA) based radioligand binding assay. Briefly, cells, representing individual selected clones, were grown as confluent monolayers in 96-well dishes (Costar Clear Bottom Plates, #3632) by seeding wells with 25,000 cells and growing for 48 hours (37° C., 5% CO2). Growth media was removed and wells were rinsed two times with PBS (minus Ca^2+ or Mg^2+). For total binding, cells were assayed in a SPA reaction containing 50 mM Tris-HCL (assay buffer), pH 7.6, 1 mg wheat germ agglutinin SPA beads (Amersham Pharmacia Biotech, #RPNQ0001), and 0.8 nM ^3H-pyrilamine (Net-594, NEN) (total volume per well=[…]). Astemizole (10 μM, Sigma #A6424) was added to appropriate wells to determine non-specific binding. Plates were covered with FasCal and incubated at room temperature for 120 minutes. […] Plates were counted in a Wallac Trilux 1450 Microbeta scintillation counter. […]

A further data set addresses T3, H3R membranes (Homo sapiens, UniProt Q9Y5N1).
T3 construct: expressed in transfected cells; host or cells: HEK293 (clone H3R8)
As to the kind of experiment: [35S]GTPγS binding assay (antagonist activity). It is filed as biochemical. The following applies: inhibition of [35S]GTPγS binding to H3R membranes in presence of agonist R(-)alpha methylhistamine. The procedure: Membranes isolated as described in (Preparation of Histamine Receptor Subtype Membranes) were used in a [35S]GTPχS functional assay. Binding of [35S]GTPχS to membranes indicates agonist activity. Compounds of the invention of Formula I were tested for their ability to inhibit binding in the presence of agonists. Alternately, the same transfected cell lines were used for a cAMP assay wherein H3R agonists inhibited forskolin-activated synthesis of cAMP. Compounds of Formula I were tested for their ability to permit forskolin-stimulated cAMP synthesis in the presence of agonist.
(§2) cDNA for the human histamine 3 receptor was cloned and expressed as described in (Preparation of Histamine Receptor Subtye Membranes: A), above. Transfected cells were selected using G418 ([…]), grown, and tested for histamine binding by the SPA described above. For total binding, cells were assayed in a SPA reaction described above containing 50 mM Tris-HCL (assay buffer), pH 7.6, 1 mg wheat germ agglutinin SPA beads (Amersham Pharmacia Biotech, #RPNQ0001), and 1nM […]-n-alpha-methylhistamine (NEN, NET1027) (total volume per well=200μl). Thioperimide was added to determine non-specific binding. […]
Antagonist activity of selected compounds was tested for inhibition of [35S] […] Plates were counted in Wallac Trilux 1450 Microbeta scintillation counter for 1 minute. […]
Background: GTPγS is a poorly hydrolysed GTP analogue; its binding reports G protein activation.

Another data set addresses T4, H2R (Homo sapiens, UniProt P25021).
T4 construct: expressed in transfected cells; host or cells: HEK 293 (clone H2R10)
As to the kind of experiment: competitive SPA binding assay, H2R. As to conditions: selectivity panel. The procedure:
cDNA for the human histamine 2 receptor was cloned, expressed and transfected into HEK 293 cells as described above. Histamine binding to cells was assayed by SPA described above. For total binding, cells were assayed in a SPA reaction containing 50 mM Tris-HCl (assay buffer), pH 7.6, 1 mg wheat germ agglutinin SPA beads (Amersham PharmaciaBiotech, #RPNQ0001), and 6.2 nM ^3H-tiotidine (Net-688, NEN) (total volume per well=200 μl). Cimetidine (10 μM, Sigma #C4522) was added to appropriate wells to determine non-specific binding.
Several clones were selected as positive for binding, and a single clone (H2R10) was used to prepare membranes for binding studies. Five micrograms of protein was used per well in the SPA receptor-binding assay.
as §1

Another data set concerns the target T5, H3R (Homo sapiens, UniProt Q9Y5N1).
T5 construct: expressed in transfected cells; host or cells: HEK293 (clone H3R8)
Kind of data set: competitive inhibition SPA binding assay, H3R. The following applies: selectivity panel.
Text: The inventive compounds can readily be evaluated by using a competitive inhibition Scintillation Proximity Assay (SPA) based on a H3R binding assay using [3H] a methylhistamine as ligand. Stable cell lines, including but not limited to HEK can be transfected with cDNA coding for H3R to prepare membranes used for the binding assay. The technique is illustrated below (Preparation of Histamine Receptor Subtype Membranes) for the histamine receptor subtypes.
as §2, with “binding. Several clones were selected as positive for binding, and a single clone (H3R8) was used to prepare membranes for binding studies described above. Five micrograms of protein was used per well in the SPA receptor-binding assay.” for “binding.”

Counter-ions that a name gives are not always drawn.

The term bioavailability denotes the share of a dose that reaches the circulation, judged against a reference dose that is usually intravenous. One may read the half-life as how long it takes for the measured level to halve. A high value points to slow loss. As usually defined, the Ki is a measure of affinity in units of concentration, obtained from inhibition or displacement.

T4 sequence (P25021 whole entry): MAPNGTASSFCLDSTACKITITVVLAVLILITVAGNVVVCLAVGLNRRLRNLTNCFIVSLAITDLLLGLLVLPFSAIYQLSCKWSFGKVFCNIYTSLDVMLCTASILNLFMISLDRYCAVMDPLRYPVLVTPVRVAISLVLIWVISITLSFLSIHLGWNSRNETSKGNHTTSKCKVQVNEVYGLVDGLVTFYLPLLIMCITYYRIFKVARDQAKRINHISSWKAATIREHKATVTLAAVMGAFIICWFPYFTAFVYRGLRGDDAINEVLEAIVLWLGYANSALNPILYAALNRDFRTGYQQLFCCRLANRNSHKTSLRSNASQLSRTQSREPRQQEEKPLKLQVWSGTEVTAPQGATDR
T3 sequence (Q9Y5N1 whole entry): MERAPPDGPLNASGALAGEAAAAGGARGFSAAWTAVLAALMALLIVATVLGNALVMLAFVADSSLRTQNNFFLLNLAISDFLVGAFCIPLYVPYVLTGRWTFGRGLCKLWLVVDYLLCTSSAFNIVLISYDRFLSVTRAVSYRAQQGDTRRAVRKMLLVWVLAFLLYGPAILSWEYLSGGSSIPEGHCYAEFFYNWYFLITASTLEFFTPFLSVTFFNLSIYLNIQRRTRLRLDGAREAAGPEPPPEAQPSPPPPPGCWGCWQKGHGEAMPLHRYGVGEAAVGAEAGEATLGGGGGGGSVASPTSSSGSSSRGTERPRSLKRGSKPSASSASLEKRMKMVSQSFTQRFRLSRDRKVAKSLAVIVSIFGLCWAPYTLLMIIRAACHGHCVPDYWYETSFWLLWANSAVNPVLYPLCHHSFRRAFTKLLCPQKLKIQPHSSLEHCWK
T5 sequence (Q9Y5N1 whole entry): as above

`CC(=O)N1CCc2ccc(OCCCN3CCCCC3)cc2CC1` [Example 19, 1-[7-(3-Piperidin-1-yl-propoxy)-1,2,4,5-tetrahydro-benzo[d]azepin-3-yl]-ethanone]: in data set [1], the bioavailability was 100% and the half-life was 12.4 h.
On to `CC(C)(C)OC(=O)N1CCCc2cc(OCCCN3CCCCC3)ccc2C1` [Example 1, 7-(3-Piperidin-1-yl-propoxy)-1,3,4,5-tetrahydro-benzo[c]azepine-2-carboxylic acid tert-butyl ester], for which the inhibition constant Ki at H4R is no less than 20000 nM; at H1R, 648 nM; on H3R membranes it was 5.1 nM; on H2R, 813 nM; on H3R, 5.1 nM. Also, on H4R, the “inhibition of binding to H4R” value was “did not inhibit binding H4R”.
In the case of `c1cc2c(cc1OCCCN1CCCCC1)CCCNC2` [Example 2, 7-(3-Piperidin-1-yl-propoxy)-2,3,4,5-tetrahydro-1H-benzo[c]azepine dihydrochloride], the Ki on H4R is no less than 20000 nM; on H1R, 1760 nM; at H3R membranes, 0.85 nM; at H2R it was 894 nM; at H3R, 0.85 nM. Further, the “inhibition of binding to H4R” value at H4R is listed as “did not inhibit binding H4R”.
`CN(C)CC(=O)N1CCCc2cc(OCCCN3CCCCC3)ccc2C1` [Example 8, 2-Dimethylamino-1-[7-(3-piperidin-1-yl-propoxy)-1,3,4,5-tetrahydro-benzo[c]azepin-2-yl]-ethanone]: in data set [1], the bioavailability turned out to be 49% and the half-life was 12.2 h.
